Literature values, collected in US9744237B2, “Method and system for effecting changes in pigmented tissue” (priority 2009, dated 2017).

B1: TGFbeta2: Transforming growth factor-beta2, growth inhibit factor of uveal melanocytes (protein, UniProt P61812 303-414, looked up)
Transforming growth factor …: ALDAAYCFRNVQDNCCLRPLYIDFKRDLGWKWIHEPKGYNANFCAGACPYLWSSDTQHSRVLSLYNTINPEASASPCCVSQDLEPLTILYYIGKTPKIEQLSNMIVKSCKCS

Tests used:
tyrosinase = conditions: for RAb: relative activity of tyrosinase inhibitor, RAb and F not defined in the patent
uveal melanocytes = conditions: for growth and melanogenesis of cultured uveal melanocytes: cAMP-deleted medium

Molecule | inhibition mechanism on tyrosinase (tyrosinase) | RAb (tyrosinase) [F] | further results
O=C(/C=C/c1ccc(O)cc1O)c1ccc(O)cc1O [2,4,2′,4′-Tetrahydroxychalcone] | Competitive | 2.5 | –
O=C(/C=C/c1c(O)cc(O)cc1O)c1ccc(O)cc1O [2,4,6,2′,4′-Pentahydroxychalcone] | Competitive | 12.0 | –
O=C(NCc1ccc(O)cc1O)c1cc(O)cc(O)c1 [3,5,2′,4′-Tetrahydfoxyl derivatives] | – | – | RAa (tyrosinase; N-Benzylbenzamides, RAa and F not defined in the patent): 7.4 F
O=c1c(-c2ccc(O)cc2)coc2cc(O)c(O)cc12 [6-Hydroxydaidzein, 6,7,4′-trihydroxyisoflavone] | Competitive | 6.0 | –
O=c1c(-c2ccc(O)cc2)coc2c(O)c(O)ccc12 [8-Hydroxydaidzein, 7,8,4′-trihydroxyisoflavone] | Suicide substrate | – | –
O=c1c(-c2ccc(O)cc2)coc2c(O)c(O)cc(O)c12 [8-Hydroxygenistein, 5,7,8,4′-tetrahydroxyisoflavone] | Suicide substrate | – | tyrosinase inhibitory activity in words (tyrosinase): the most potent suicide substrate of mushroom tyrosinase until now
COc1cc(O)c2c(=O)cc(-c3ccc(O)cc3O)oc2c1 [Artocarpetin, 5,2′,4′-trihydroxy-7-methoxyflavone] | – | < 0.1 | –
CC1=C(O)C(=O)C(C)O1 (stereo not shown) [DMHF, 2,5-Dimethyl-4-hydroxy-3(2H)-furanone] | – | – | melanogenesis / melanin content / pigmentation (B16 melanoma cells): inhibits a-MSH induced melanogenesis
CNC[C@H](O)c1ccc(O)c(O)c1 [Epinephrine] | – | – | growth and melanogenesis of cultured uveal melanocytes (uveal melanocytes): substantially stimulated growth and melanogenesis
COCCNC(=O)COc1ccc(OCCNC[C@H](O)COc2ccccc2)cc1 [Example D7114] | – | – | growth and melanogenesis of cultured uveal melanocytes (uveal melanocytes): showed no effect
CC1(C)C=Cc2c(ccc3c2OC[C@@H](c2ccc(O)cc2O)C3)O1 [Glabridine] | Non-competitive | 15.2 | –
COc1c(CC=C(C)C)c(O)cc2c1C[C@H](c1ccc(O)cc1O)CO2 [GlyasperinC] | – | 27.7 | –
Oc1ccc(-c2ccc3cc(O)ccc3c2)c(O)c1 [HNB, 4-(6-hydroxy-2-naphtyl)-1.3-bezendiol] | – | – | tyrosinase inhibitory activity in words (tyrosinase): the strongest tyrosinase inhibitor published until now
COc1c(O)ccc(C2=Cc3ccc(O)cc3OC2)c1OC [HagininA, 2′,3′-dimethoxy-7,4′-dihdroxyisoflav-3-ene] | Non-competitive | 10.1 | –
Cc1ccc(C2(C)CC(C)(C)c3ccc(C)cc3O2)c(O)c1 (stereo not shown) [Inulavosin] | – | – | effect on tyrosinase mRNA / transcription (B16 melanoma cells): without affecting either the enzymatic activities or the transcription of tyrosinase; melanogenesis / melanin content / pigmentation (B16 melanoma cells): reduced the melanin content
C=C(C)[C@H](CC=C(C)C)Cc1c(O)cc(OC)c(C(=O)/C=C/c2ccc(O)cc2O)c1O [Kuraridin] | – | 34.1 | –
Br.CCN1C[C@]2(OC(=O)c3ccccc3NC(C)=O)CC[C@H](OC)[C@@]34[C@@H]2C[C@@H]([C@@H]13)[C@@]1(O)C[C@H](OC)[C@H]2C[C@@H]4[C@]1(O)[C@H]2OC [Lappaconitine hydrobromide] | – | – | tyrosinase inhibitory activity in words (tyrosinase): activity similar to that of kojic acid
C=CC(C)(C)c1cc(/C=C/C(=O)c2ccc(O)cc2)c(OC)cc1O [LicochalconeA] | Competitive | 5.4 | –

Molecule | inhibition mechanism on tyrosinase (tyrosinase) | RAb (tyrosinase) [F] | further results
COc1ccc(OC)c(C(O)C(C)N)c1 (stereo not shown) [Methoxamine] | – | – | growth and melanogenesis of cultured uveal melanocytes (uveal melanocytes): showed no effect
C[C@@H]1O[C@H](C[N+](C)(C)C)C[C@H]1O [Muscarine] | – | – | growth and melanogenesis of uveal melanocytes (uveal melanocytes; complete medium): inhibited the growth and melanogenesis
O=c1cc(-c2ccc(O)cc2O)oc2cc(O)cc(O)c12 [Norartocarpetin] | Competitive | 10.4 | –
O=C1CC(c2ccc(O)cc2O)Oc2cc(O)cc(O)c21 (stereo not shown) [Streppogenin, 5,7,2′,4′-tetrahydroxy-flavavone] | Competitive | 13.6 | –
CC(C)=CCc1c(O)ccc(/C=C/C(=O)c2ccc(O)cc2O)c1O [TMBC, 2,4,2′,4′-tetrahydroxy-3-(3-methy1-2-buteny1)-chalcone] | Competitive | 26.1 | –
Clc1cccc(Cl)c1N=C1NCCN1 [clonidine] | – | – | growth and melanogenesis of cultured uveal melanocytes (uveal melanocytes): showed no effect
OC[C@H]1NC[C@@H](O)[C@@H](O)[C@@H]1O [deoxymannojirimycin] | – | – | glycosylation, transportation of tyrosinase to the melanosome and melanin synthesis (HM3K0 melanoma cells): showed inhibition of glycosylation, transportation of tyrosinase to the melanosome and melanin synthesis
N[C@H]1C(O)O[C@H](CO)[C@@H](O)[C@@H]1O (stereo partly shown) [glucosamine] | – | – | melanogenesis / melanin content / pigmentation (B16 melanoma cells): decreased pigmentation
CC(C)NCC(O)c1ccc(O)c(O)c1 (stereo not shown) [isoproterenol] | – | – | growth and melanogenesis of cultured uveal melanocytes (uveal melanocytes): substantially stimulated growth and melanogenesis
CC(C)NCC(O)c1cc(O)cc(O)c1 (stereo not shown) [metaproterenol] | – | – | growth and melanogenesis of cultured uveal melanocytes (uveal melanocytes): substantially stimulated growth and melanogenesis
OCc1ccc(O)cc1 [p-hydroxybenzyl alcohol] | irreversibly inhibited the enzyme | – | –
CC(C)NC[C@H](O)COc1ccc(O)cc1 [prenalterol] | – | – | growth and melanogenesis of cultured uveal melanocytes (uveal melanocytes): showed no effect
CC(C)(C)NCC(O)c1ccc(O)c(CO)c1 (stereo not shown) [salbutamol] | – | – | growth and melanogenesis of cultured uveal melanocytes (uveal melanocytes): substantially stimulated growth and melanogenesis
Hen egg white lysozyme (HEWL): Hen egg white lysozyme | reversibly and irreversibly mixed inhibition mechanism | – | –
Kuraridinol | Non-competetive | – | –
tunicamycin | – | – | melanogenesis / melanin content / pigmentation (B16 melanoma cells): decreased pigmentation
B1 | – | – | amount of active TGFbeta2 in aqueous humor sufficient to inhibit the growth of uveal melanocytes (uveal melanocytes): 0.2-0.4 ng m1-1
